The subject of experiment [1] is tubulin. As to the kind of experiment: tubulin polymerization cell-based immunoblot assay. To be noted: immunoblot of pellet and supernatant. A general note: In western blotting, separated proteins are transferred to a membrane and probed.
Experiment [2] relates to MV4-11 leukemia cells. As to the kind of experiment: MV4-11 leukemia cell viability. In kind it is cell-based, human.
Experiment [3] concerns panel of 60 human tumor cell lines. Put plainly: NCI-60 five dose assay, whole panel summary. In kind it is cell-based.
The test system of experiment [4] is SW-620. The conditions noted are these: SW-620 (Colon Cancer), five dose; cited from earlier work.
Experiment [5] concerns ACHN. To be noted: ACHN (Renal Cancer), five dose; cited from earlier work.
For experiment [6], the system named is A549/ATCC. The conditions noted are these: A549/ATCC (Lung Cancer), five dose; cited from earlier work.
Experiment [7] deals with HT29. To be noted: HT29 (Colon Cancer), five dose; cited from earlier work.
Experiment [8] deals with MOLT-4. To be noted: MOLT-4 (Leukemia), five dose; cited from earlier work.
Experiment [9] concerns NCI/ADR-RES. The conditions noted are these: NCI/ADR-RES (Ovarian Cancer), five dose; cited from earlier work.
Experiment [10] has as its system U251. To be noted: U251 (CNS Cancer), five dose; cited from earlier work.
Experiment [11] has as its system SK-OV-3. To be noted: SK-OV-3 (Ovarian Cancer), five dose; cited from earlier work.
For experiment [12], the system named is CAKI-1. To be noted: CAKI-1 (Renal Cancer), five dose; cited from earlier work.
For experiment [13], the system named is RPMI-8226. The conditions noted are these: RPMI-8226 (Leukemia), five dose; cited from earlier work.
Experiment [14] relates to panel of 60 human tumor cell lines. The conditions noted are these: against 87% of the cancer cell lines; cited from earlier work.
Experiment [15] concerns COLO 205. To be noted: COLO 205 (Colon Cancer), five dose; cited from earlier work.
Experiment [16] has as its system MDA-MB-468. The conditions noted are these: MDA-MB-468 (Breast Cancer), five dose; cited from earlier work.
Experiment [17] concerns MCF7. To be noted: MCF7 (Breast Cancer), five dose; cited from earlier work.
In experiment [18] the test system is NCI-H23. To be noted: NCI-H23 (Lung Cancer), five dose; cited from earlier work.
The subject of experiment [19] is NCI-H522. To be noted: NCI-H522 (Lung Cancer), five dose; cited from earlier work.
In experiment [20] the test system is HCC-2998. To be noted: HCC-2998 (Colon Cancer), five dose; cited from earlier work.
In experiment [21] the test system is HCT-15. The conditions noted are these: HCT-15 (Colon Cancer), five dose; cited from earlier work.
The subject of experiment [22] is CCRF-CEM. To be noted: CCRF-CEM (Leukemia), five dose; cited from earlier work.
The test system of experiment [23] is HCT-116. To be noted: HCT-116 (Colon Cancer), five dose; cited from earlier work.
Experiment [24] has as its system OVCAR-3. The conditions noted are these: OVCAR-3 (Ovarian Cancer), five dose; cited from earlier work.
Experiment [25] relates to MDA-MB-231/ATCC. To be noted: MDA-MB-231/ATCC (Breast Cancer), five dose; cited from earlier work.
In experiment [26] the test system is HOP-92. To be noted: HOP-92 (Lung Cancer), five dose; cited from earlier work.
For experiment [27], the system named is MDA-MB-435. The conditions noted are these: MDA-MB-435 (Melanoma), five dose; cited from earlier work.
In experiment [28] the test system is SK-MEL-2. To be noted: SK-MEL-2 (Melanoma), five dose; cited from earlier work.
Experiment [29] concerns LOX IMVI. To be noted: LOX IMVI (Melanoma), five dose; cited from earlier work.
Experiment [30] relates to UO-31. The conditions noted are these: UO-31 (Renal Cancer), five dose; cited from earlier work.
Experiment [31] has as its system KM12. To be noted: KM12 (Colon Cancer), five dose; cited from earlier work.
The subject of experiment [32] is UACC-62. To be noted: UACC-62 (Melanoma), five dose; cited from earlier work.
The subject of experiment [33] is HS 578T. To be noted: HS 578T (Breast Cancer), five dose; cited from earlier work.
For experiment [34], the system named is IGROV1. The conditions noted are these: IGROV1 (Ovarian Cancer), five dose; cited from earlier work.
Experiment [35] relates to K-562. The conditions noted are these: K-562 (Leukemia), five dose; cited from earlier work.
The subject of experiment [36] is HL-60(TB). To be noted: HL-60(TB) (Leukemia), five dose; cited from earlier work.
Experiment [37] relates to SK-MEL-28. To be noted: SK-MEL-28 (Melanoma), five dose; cited from earlier work.
In experiment [38] the test system is SF-268. The conditions noted are these: SF-268 (CNS Cancer), five dose; cited from earlier work.
For experiment [39], the system named is SNB-19. The conditions noted are these: SNB-19 (CNS Cancer), five dose; cited from earlier work.
Experiment [40] concerns OVCAR-4. To be noted: OVCAR-4 (Ovarian Cancer), five dose; cited from earlier work.
The subject of experiment [41] is SF-539. To be noted: SF-539 (CNS Cancer), five dose; cited from earlier work.
The test system of experiment [42] is 786-0. To be noted: 786-0 (Renal Cancer), five dose; cited from earlier work.
The subject of experiment [43] is A498. To be noted: A498 (Renal Cancer), five dose; cited from earlier work.
Experiment [44] concerns M14. The conditions noted are these: M14 (Melanoma), five dose; cited from earlier work.
For experiment [45], the system named is SF-295. To be noted: SF-295 (CNS Cancer), five dose; cited from earlier work.
The test system of experiment [46] is HOP-62. To be noted: HOP-62 (Lung Cancer), five dose; cited from earlier work.
The test system of experiment [47] is SK-MEL-5. To be noted: SK-MEL-5 (Melanoma), five dose; cited from earlier work.
Experiment [48] concerns SNB-75. To be noted: SNB-75 (CNS Cancer), five dose; cited from earlier work.
Experiment [49] has as its system SR. To be noted: SR (Leukemia), five dose; cited from earlier work.

SMILES strings stand for the structures. Where two headings read alike, the source gives them in different places.

Usually GI50 stands for the concentration at which growth is held to half of that of the control.

`COc1ccc(/C(=C/c2ccc3ccccc3c2)c2nnn[nH]2)cc1OC` [Compound 10b, (Z)-5-(1-(3,4-Dimethoxyphenyl)-2-(naphthalen-2-yl)vinyl)-1H-tetrazole]: the “inhibition of tubulin polymerization” value in [1] (1.0 μM and 2.0 μM) is “inhibited tubulin polymerization”; in experiment [1] (2.0 μM), “significantly less active”. In experiment [2], the “LD50 (24h)” value amounted to 1.08 µM. Also, in [2], the “LD50 (48h)” value is 1.01 µM. Besides, the GI50 in experiment [3] (against more than 30% of the human cancer cell lines) was less than 2.5 µM; in [3] (against only 15% of the cell lines in the panel), less than 2 µM.
For the compound `COc1ccc(/C=C(/c2cc(OC)c(OC)c(OC)c2)c2nnn[nH]2)cc1O` [Compound 8h, (Z)-5-(2-(1H-Tetrazol-5-yl)-2-(3,4,5-trimethoxyphenyl)vinyl)-2-methoxyphenol], the “inhibition of tubulin polymerization” value is given as “inhibited tubulin polymerization” in experiment [1] (1.0 μM and 2.0 μM); “Significant inhibition” in experiment [1] (2.0 μM). The “LD50 (24h)” value in [2] is 0.03 µM. Further, the “LD50 (48h)” value in experiment [2] was 0.02 µM. Moreover, the LD50 in [2] (time not stated in text (equals 24h value of Table 4)) amounted to 30 nM; in experiment [2] (time not stated in text (equals 48h value of Table 4)), 20 nM. The compound further returned a GI50 in experiment [3] (60 cell) of less than 0.01 µM.
In the case of `COc1ccccc1/C=C(/c1cc(Br)cc(Br)c1)c1nnn[nH]1` [Compound 8c, (Z)-5-(1-(3,5-Dibromophenyl)-2-(2-methoxyphenyl)vinyl)-1H-tetrazole], in experiment [2], the “LD50 (24h)” value turned out to be 28.8 µM and the “LD50 (48h)” value worked out at 28.6 µM.
With `COc1ccc(/C=C(/c2cc(OC)c(OC)c(OC)c2)c2nnn[nH]2)cc1` [Compound 8g, (Z)-5-(2-(4-Methoxyphenyl)-1-(3,4,5-trimethoxyphenyl)vinyl)-1H-tetrazole], in experiment [1] (1.0 μM and 2.0 μM), the “inhibition of tubulin polymerization” value is given as “inhibited tubulin polymerization”. The “inhibition of tubulin polymerization” value in [1] (2.0 μM) is given as “Significant inhibition”. Besides, in experiment [2], the “LD50 (24h)” value stood at 4.60 µM and the “LD50 (48h)” value was found to be 4.29 µM. In experiment [2] (LD50 ratio), the “fold less effective when compared with 8h” value is reported as approximately 170 fold.
`COc1ccc(/C=C(\C#N)c2cc(OC)c(OC)c(OC)c2)cc1O` [Compound 5]: the concentration for 50% growth inhibition (GI50) was less than 0.01 µM in [4]; less than 0.01 µM in [5]; less than 0.01 µM in experiment [6]; 3.18 µM in [7]; less than 0.01 µM in [8]; less than 0.01 µM in experiment [9]. In addition, the GI50 was 0.01 µM in experiment [10]; 0.01 µM in experiment [11]; 0.03 µM in experiment [12]; less than 0.01 µM in experiment [13]; less than 0.01 µM in experiment [14]; 2.99 µM in experiment [15]. The concentration for 50% growth inhibition (GI50) is less than 0.01 µM in [16]; less than 0.01 µM in experiment [17]; less than 0.01 µM in [18]; less than 0.01 µM in [19]; 0.02 µM in experiment [20]; less than 0.01 µM in [21]. Also, the GI50 in [22], in experiment [23], in experiment [24], in [25], in experiment [26] and in experiment [27] was less than 0.01 µM in each case. Further, the GI50 in experiment [28], in experiment [29], in [30], in experiment [31], in experiment [32] and in [33] was less than 0.01 µM each time. The GI50 in experiment [34] was less than 0.01 µM; in [35], less than 0.01 µM; in [36], less than 0.01 µM; in [37] it was 1.01 µM; in [38], less than 0.01 µM; in experiment [39] it was less than 0.01 µM. The 50% growth inhibitory concentration (GI50) in experiment [40] is less than 0.01 µM; in experiment [41], less than 0.01 µM; in experiment [42], less than 0.01 µM; in experiment [43], less than 0.01 µM; in experiment [44], less than 0.01 µM; in experiment [45], 0.05 µM. The 50% growth inhibitory concentration (GI50) in experiment [46], in [47], in experiment [48] and in [49] was less than 0.01 µM in each case. For the same compound, in [2], the “LD50 (48h)” value was 0.04 µM.
As to `COc1ccc(/C=C(/c2ccc([N+](=O)[O-])cc2)c2nnn[nH]2)c2ccccc12` [Compound 10a, (Z)-5-(2-(4-Methoxynaphthalen-1-yl)-1-(4-nitrophenyl)vinyl)-1H-tetrazole], the “inhibition of tubulin polymerization” value in experiment [1] (1.0 μM and 2.0 μM) was “inhibited tubulin polymerization”; in experiment [1] (2.0 μM) it was “Significant inhibition”. For the same compound, in experiment [2], the “LD50 (24h)” value was 1.46 µM. Also, the “LD50 (48h)” value in [2] is 1.39 µM.
